US20070105928A1, “6-Pentafluorophenyl-triazolopyrimidines, method for their production and their use for combating pathogenic fungi, in addition to agents containing said substances” (priority 2003, published 2007)

Key:
[1] = system: Botrytis cinerea; assay: Activity against gray mold on bell pepper leaves caused by Botrytis cinerea, protective application; format: in vivo; settings: 63 ppm, bell pepper seedlings cultivar Neusiedler Ideal Elite, protective spray, assessed after 5 days; untreated plants 90% infected
Experimental: The active compounds were prepared as a stock solution with 0.25% by weight of active compound in acetone or DMSO. 1% by weight of the emulsifier Uniperol® EL (wetting agent having emulsifying and dispersing action based on ethoxylated alkylphenols) was added to this solution, and the mixture was diluted with water to the desired concentration. Bell pepper seedlings of the cultivar “Neusiedler Ideal Elite” were, after 2 to 3 leaves were well developed, sprayed to runoff point with an aqueous suspension having the concentration of active compound stated below. The next day, the treated plants were inoculated with a spore suspension of Botrytis cinerea which contained 1.7×10^6 spores/ml in a 2% strength aqueous biomalt solution. The test plants were then placed in a dark climatized chamber at 22-24° C. and high atmospheric humidity. After 5 days, the extent of the fungal infection on the leaves could be determined visually in %.

[2] = system: Pyrenophora teres; assay: Activity against net blotch of barley caused by Pyrenophora teres, protective application; format: in vivo, Pyrenophora [syn. Drechslera] teres; settings: 250 ppm, barley seedlings cultivar Hanna, protective spray, assessed after 6 days; untreated plants 90% infected
Experimental: The active compounds were prepared as a stock solution with 0.25% by weight of active compound in acetone or DMSO. 1% by weight of the emulsifier Uniperol® EL (wetting agent having emulsifying and dispersing action based on ethoxylated alkylphenols) was added to this solution, and the mixture was diluted with water to the desired concentration. Leaves of pot-grown barley seedlings of the cultivar “Hanna” were sprayed to run off point with an aqueous suspension having the concentration of active compound stated below. 24 hours after the spray coating had dried on, the test plants were inoculated with an aqueous suspension of Pyrenophora [syn. Drechslera] teres, the causative agent of net blotch. The test plants were subsequently placed in a greenhouse at 20-24° C. and 95-100% relative atmospheric humidity. After 6 days, the extent of development of the disease was determined visually in percent infection of the total leaf area.

Cc1nc2ncnn2c(N2CCC(C)CC2)c1-c1c(F)c(F)c(F)c(F)c1F [Compound I-3, 5-methyl-6-(pentafluorophenyl)-7-(4-methylpiperidinyl)-1,2,4-triazolo[1,5a]pyrimidine]
fungal infection on the leaves [1]: no infection | infection of the total leaf area [2]: 5%
